# In patent publication EP0167954A2, “1-Hydroxy-cytorhodines, a microbiological method for their preparation and their use as cytostatic agents” (HOECHST AKTIENGESELLSCHAFT, priority 1984, dated 1986):
# Like-named read-outs stand apart in the source and are kept apart here.
# Columns and labels:
# L1210 Leukämiezellen = assay: Colony formation of L1210 leukaemia cells in soft agar; format: cell-based, Maus; conditions: Mus musculus
# Text: (§1) Die Bestimmung der zytostatischen Wirksamkeit der hier beschriebenen Verbindungen erfolgte an L1210 Leukämiezellen der Maus. Im einzelnen wurden folgende Testsysteme verwendet:
# b) Koloniebildung von L1210 Leukämiezellen in soft agar.
# Diese Methode dient zum Nachweis eines Einflusses der Testsubstanzen auf das Wachstumsverhalten der Zellen über mehrere Generationen (bei einer Zellzykluszeit von 10-12 Stunden werden in der Testzeit von 7 Tagen ca. 14 aufeinanderfolgende Generationen beobachtet).
# Zytostatisch wirksame Substanzen bewirken in diesem Test eine Reduktion der zu beobachtenden Koloniezahl gegenüber einer unbehandelten Kontrolle. Im einzelnen wird der Test wie folgt durchgeführt:
# 500 Leukämiezellen pro Platte werden mit unterschiedlichen Konzentrationen von Testsubstanz 1 Stunde bei 37°C inkubiert. Anschließend werden die Zellen zweimal mit McCoy5A Medium gewaschen und schließlich in Petrischalen nach Zusatz von 0,3 % Agar ausgegossen. Kontrollen werden lediglich mit frischem Medium inkubiert. Anstelle der lstündigen Inkubation werden in manchen Fällen unterschiedliche Konzentrationen und Testsubstanz der oberen Agarschicht zugemischt, um so eine kontinuierliche Exposition der Zellen über die gesamte Inkubationszeit zu erreichen. Nach Erstarren des Agars werden die Platten im Brutschrank 7 Tage bei 37°C inkubiert (5 % C02, 95 % relative Luftfeuchtigkeit). Anschließend wird die Anzahl der entstandenen Kolonien mit einem Durchmesser 60 p gezählt. Die Ergebnisse werden angegeben als Koloniezahl in behandelten Agarplatten in Prozent der unbehandelten Kontrolle. Aus der so erhaltenen Dosiswirkungskurve wird die IC50 als Maß für die Wirksamkeit der Substanz ermittelt. Die Ergebnisse für die hier beschriebenen Verbindungen im Vergleich zu Adriamycin sind in der Tabelle 1 zusammengefaßt.
# [1] = test system: L1210 Leukämiezellen der Maus; assay: Proliferation assay (incorporation of C14-labelled thymidine); format: cell-based; conditions: Mus musculus
# Text: as §1
# Bei dieser Methode wird in vitro nach Inkubation der Zellen mit unterschiedlichen Konzentrationen der Testsubstanz ermittelt, inwieweit die Zellen radioaktive DNA-Vorläufer (z.B. C14 markiertes Thymidin) einbauen können. Unbehandelte L1210 Zellen werden den gleichen Testbedingungen unterworfen und dienen als Kontrolle. Im folgenden ist die Methode kurz beschrieben.
# L1210 Zellen in exponentieller Wachstumsphase (5 x 10^3/ml in RPMI 1640) werden in einer Mikrotiterplatte 72 Stunden mit unterschiedlichen Konzentrationen der Testsubstanz inkubiert (37°C, 5 % C021 95 % relative Luftfeuchte). Kontrolle bestehen aus Zellen, die lediglich mit frischem Medium inkubiert werden. Alle Bestimmungen werden als 4fach Bestimmungen durchgeführt. Nach 65 Stunden werden 50 µl C-1 14 Thymidin (1,5 µc/ml) zugegeben, um die DNA der Zelle radioaktiv zu markieren. Nach 7 Stunden Inkubation werden die Zellen abgesaugt, die DNA mit 5%iger Trichloressigsäure gefällt und nacheinander mit Wasser bzw. Methanol gewaschen.
# Nach Trocknung bei 50°C wird die in die DNA eingebaute Radioaktivität nach Zugabe von 5 ml Szintillationsflüssigkeit ermittelt.
# Die Ergebnisse werden angegeben als Verhältnis des Szintillationsindex nach Inkubation mit der Testsubstanz in Prozent der unbehandelten Kontrolle. Aus den so erhaltenen Meßwerten wird die Dosiswirkungskurve ermitelt und graphisch die IC50, d.h. die Konzentration, die unter Testbedingungen den Einbau von radioaktivem Thymidin um 50 % gegenüber der Kontrolle erniedrigt, ermittelt. Die IC50 Werte der hier beschriebenen Verbindungen im Vergleich zu Adriamycin (ADM) werden in der Tabelle 1 zusammengefaßt.
# [2] = L1210, 168 h, read-out: Koloniebildungstest IC50, 7 Tage Inkubation
# [3] = L1210, read-out: Koloniebildungstest IC50, 1 Stunde Inkubation
# [4] = L1210, read-out: Proliferationstest IC50
"IC50 (L1210 Leukämiezellen; 168 h, L1210 cells in soft agar, continuous exposure (substance mixed into upper agar layer), 7 days at 37°C, read-out: Koloniebildungstest IC50, 7 Tage Inkubation)","IC50 (L1210 Leukämiezellen; L1210 cells, 1 h incubation with substance at 37°C, washed, then 7 days in soft agar, read-out: Koloniebildungstest IC50, 1 Stunde Inkubation)","IC50 ([1]; L1210 cells, 72 h incubation with test substance, C14 thymidine added after 65 h, IC50 read graphically, read-out: Proliferationstest IC50)",SMILES,IC50 (L1210 Leukämiezellen; [2]),IC50 (L1210 Leukämiezellen; [3]),"IC50 [1, 4]"
–,–,–,"CCC1(O)CC(OC2CC(N(C)C)C(OC3CCC(OC4CCC(O)C(C)O4)C(C)O3)C(C)O2)c2c(O)c3c(c(O)c2C1OC1CC(N(C)C)C(OC2CCC(OC4CCC(O)C(C)O4)C(C)O2)C(C)O1)C(=O)c1c(O)ccc(O)c1C3=O (stereo not drawn) [1-OH-Cytorhodin A, 1-Hydroxy-Cytorhodin A]",2.8 ng/mL,26 ng/mL,3 ng/mL
0.45 ng/mL,2.4 ng/mL,2.8 ng/mL,"CCC1(O)CC(OC2CC(N(C)C)C(OC3CCC(OC4C=CC(=O)C(C)O4)C(C)O3)C(C)O2)c2c(O)c3c(c(O)c2C1OC1CC(N(C)C)C(OC2CCC(OC4CCC(O)C(C)O4)C(C)O2)C(C)O1)C(=O)c1c(O)ccc(O)c1C3=O (stereo not drawn) [1-OH-Cytorhodin V, 1-Hydroxy-Cytorhodin V]",–,–,–
–,–,–,"COc1cccc2c1C(=O)c1c(O)c3c(c(O)c1C2=O)C[C@@](O)(C(=O)CO)C[C@@H]3O[C@H]1C[C@H](N)[C@H](O)[C@H](C)O1 [ADM, Adriamycin, reference compound]",22 ng/mL,44 ng/mL,6 ng/mL
